Values quoted from earlier work as cited in publication PMC10104807, “Modulation of tau tubulin kinases (TTBK1 and TTBK2) impacts ciliogenesis” (Scientific Reports, 2023).

Columns and labels:
[1] = tested on: 403 wild-type (WT) human kinases; parameters: method as in PMID 33944571; conditions: 1 μM; cited from earlier work
tau phosphorylation = conditions: cited from earlier work
[2] = parameters: method as in PMID 34978799; conditions: cited from earlier work

Structure (SMILES)	number of kinases bound with PoC < 10 in DiscoverX scanMAX panel [1]	tau phosphorylation at multiple disease-relevant sites in vivo (tau phosphorylation)	brain penetration [2]
CC[C@](C)(O)C#Cc1cc2c(ccn2-c2cc(OC)nc(N)n2)cn1 [BGN31]	eight	significantly lowered	–
CC[C@](C)(O)C#Cc1cc2c(cn1)cnn2-c1ccnc(N)n1 [BGN18]	sixteen	–	–
Clc1ccc(-c2ccc(Nc3ncnc4[nH]ccc34)cc2)cc1 [compound 29]	–	–	good brain penetration
